Data: patent US20170029454A1, “NKT CELL LIGANDS AND METHODS OF USE” (THE SCRIPPS RESEARCH INSTITUTE, priority 2013, published 2017)
Where two headings read alike, the source gives them in different places.

Experiments:
[1] = biological target: L363 antibody; experiment: Surface plasmon resonance: binding of immobilized L363 antibody to CD1d-lipid complexes; conditions: for Kdiss (L363 binding to CD1d-lipid complex) / Kd / Affinity Kd (Kdiss/Kass): lipid loaded on mCD1d, single cycle SPR, Biacore T200; for Kd: read-out: Affinity Kd (Kdiss/Kass); for binding of L363 to lipid loaded into CD1d: SPR
Experimental: Single cycle analysis was performed on CM5 chips using 250-1000 RUs of immobilized antibody and increasing concentrations of CD1-lipid complexes.
(§1) A Biacore T200 instrument (GE Healthcare, Pittsburgh, Pa.) was used for SPR measurements. Measurements were performed using single cycle protocols to avoid repeated use of regeneration buffer on the immobilized ligands. Immobilization of target antibodies was carried out using classical amine coupling chemistry. 250 to 1,000 RU of antibody was immobilized in each flow cell. All mCD1-lipid complexes were purified after loading to ensure maximal homogeneity and avoid the presence of small amounts of aggregated material. Concentrations ranging from […] were used for each CD1-lipid complex. Flow cell one was used as a negative control and used for subtraction from experimental flow cells. Global analysis of subtracted sensorgrams was carried out using the T200 analysis software.
as §1, with “(available from GE” for “(GE”, “cells (L363 antibody—control antibody).” for “cells.”

[2] = system: DN32.D3 NKT cells; experiment: T cell activation assay (IL-2 production) with Vα14 NKT hybridoma DN32.D3; type: cell-based; conditions: for effect on stimulation of NKT cells, FIG. 10 legend: DC3.2 cells treated with recombinant TNFα (legend FIG. 10); for effect on stimulation of NKT cells in the context of TNFα stimulation: DC3.2 cells, TNFα stimulation (FIG. 11); for effect on stimulation of NKT cells by DCs: non-differentiated and LPS-treated DC3.2 cells, 1-deoxygalactonojirimycin 0.5 μM, 1-deoxygluconojirimycin 2.0 μM; for effect of ceramidase inhibition on stimulatory activity towards NKT cells: untreated or LPS-treated DC3.2 cells, 24 h
Experimental: T cell hybridoma cells were cultured in RPMI supplemented with 10% FCS, 2 mM L-glutamine, 20 mM HEPES, and non-essential amino acids. Antigen presentation assays were carried out using 5-20×10^3 DC 3.2 cells or 1×10^5 splenocytes and 4×10^4 T cells per well in 96 well tissue culture plates in triplicates. Cell culture supernatants were collected 24 h later for determination of IL-2 concentrations using an IL-2-dependent NK cell line reporter system. NKT cells have a memory phenotype and hallmarks of “pre-activation” when analyzed ex vivo. In vitro they have been described as being highly autoreactive by their propensity at being activated by syngeneic target cells expressing CD1d molecules (Bendelac et al. 2007, Annual Rev. Immuno., 25:297; Park et al., 1998, J. Immunol., 160:3128). This phenomenon can be illustrated by the activation of Vα14 NKT hybridoma cell DN32.D3 against RBL-CD1, a CD1d positive cell line, that have been stimulated by […] ligands. Stimulation of DN32.D3 cells and TBA.7 cells, a non-Vα14 NKT cell hybridoma, was tested against RBL-CD1 or RBL-CD1 SAP^-/- in which […] expression was knocked down by interfering RNAs. The hybridoma cells were cultured in RPMI supplemented with 10% FCS, 2 mM L-glutamine, 20 mM HEPES, and non-essential amino acids. Antigen presentation assays were carried out using 5-20×10^3 DC 3.2 cells or 1×10^5 splenocytes and 4×10^4 T cells per well in 96-well tissue culture plates in triplicates. Cell culture supernatants were collected 24 h later for determination of IL-2 concentrations using an IL-2-dependent NK cell line reporter system. […] The results are shown in FIGS. 14A-E. A control (open circles) was included for comparison with each inhibitor (filled circles).

[3] = system: L317 antibody; experiment: Surface plasmon resonance: binding of L317 antibody to CD1d-lipid complexes; conditions: SPR
Experimental: as §1
as §1, with “(available from GE” for “(GE”, “Flow cell one was used as a negative control and used for subtraction from experimental flow cells. Global analysis of subtracted sensorgrams was carried out using the T200 analysis software.” left out

[4] = biological target: T1, CD1d (Mus musculus, UniProt P11609); experiment: In vitro binding of detergent to CD1d; conditions: in vitro (data not shown)
T1 sequence (P11609 19-297 limits assumed): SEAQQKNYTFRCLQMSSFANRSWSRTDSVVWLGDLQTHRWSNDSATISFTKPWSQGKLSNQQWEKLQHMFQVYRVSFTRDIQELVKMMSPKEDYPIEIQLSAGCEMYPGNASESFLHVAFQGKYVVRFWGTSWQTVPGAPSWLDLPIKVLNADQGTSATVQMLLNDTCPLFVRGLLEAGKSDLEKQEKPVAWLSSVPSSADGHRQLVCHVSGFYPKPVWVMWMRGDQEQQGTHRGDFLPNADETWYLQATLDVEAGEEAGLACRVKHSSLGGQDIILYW
T1 sequence (P01887 21-119 partner): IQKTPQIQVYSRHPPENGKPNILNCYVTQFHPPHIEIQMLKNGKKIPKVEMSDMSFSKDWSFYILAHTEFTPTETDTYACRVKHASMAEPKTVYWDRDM

[5] = system: DC3.2 cells; experiment: Toxicity of ceramidase inhibitors over a 24 h assay (viability and αGalCer presentation to DN32.D3 cells); type: cell-based
Experimental: In the absence of a suitable animal model, enzyme inhibitors were used to assess the role of ceramidases in the control of NKT ligands. […] In the T-cell activation assays, DC3.2 cells were differentiated with LPS and treated with inhibitors of α-glycosidases (GLAi and/or GAAi), 1-deoxygalactonojirimycin (0.5 μM) and 1-deoxygluconojirimycin (2.0 μM), respectively, or ceramidase inhibitors (NAAA/ASAHLi(27) (20 μM) or AC/ASAH1i, carmofur (1.0 μM) for 24 h and used to stimulate DN32.D3 NKT cells. The results are shown in FIGS. 14A-E. A control (open circles) was included for comparison with each inhibitor (filled circles).

[6] = biological target: T2, ASAHL (NAAA) (Homo sapiens, UniProt Q02083); experiment: Specific activity of the ASAHL inhibitor; type: biochemical; parameters: unit not given here
T2 sequence (Q02083 29-359): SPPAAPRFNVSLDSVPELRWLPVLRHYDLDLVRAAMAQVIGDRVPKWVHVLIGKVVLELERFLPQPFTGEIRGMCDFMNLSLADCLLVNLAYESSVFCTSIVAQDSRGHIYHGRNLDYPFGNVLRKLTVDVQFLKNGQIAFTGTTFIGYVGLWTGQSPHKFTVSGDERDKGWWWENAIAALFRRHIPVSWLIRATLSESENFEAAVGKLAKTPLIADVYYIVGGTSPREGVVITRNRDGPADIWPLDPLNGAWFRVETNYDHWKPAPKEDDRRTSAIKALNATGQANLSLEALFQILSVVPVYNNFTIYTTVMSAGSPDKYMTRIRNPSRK

[7] = carmofur 1.0 μM, NAAA/ASAHLi 20 μM

With `CCCCCCCCCCCCC/C=C/C(O)[C@H](COC1OC(CO)C(O)C(O)C1O)NC(=O)CCCCCCCCCCCCCCCCCCCCCCCCC` (stereo partly drawn) [αGluCer] the “Kdiss (L363 binding to CD1d-lipid complex)” value [1] was 0.4711 s⁻¹ and the Kd [1] was 5020 nM.
`OC[C@H]1NC[C@H](O)[C@@H](O)[C@H]1O` [1-deoxygalactonojirimycin] was tested, and the “effect on stimulation of NKT cells, FIG. 10 legend” value [2] was “induced or increased stimulation of NKT cells”, the “effect on stimulation of NKT cells in the context of TNFα stimulation” value [2] was “did not increase stimulation of NKT cells” and the “effect on stimulation of NKT cells by DCs” value [2] was “induced or increased a robust stimulation of NKT cells”.
With αGal(α1-2)Galactosylceramide the “binding of L363 to lipid loaded into CD1d” value [1] was “no ability to bind” and the “binding of L317 to lipid loaded into CD1d” value [3] was “no ability to bind”.
With `CCCCCCCCCCCC1(C)OCC(COCCCS(=O)(=O)[O-])O1.[Na+]` (stereo not drawn) [Sodium 3-[(2-methyl-2-undecyl-1,3-dioxolan-4-yl)methoxy]-1-propanesulfonate] the “binding to CD1d” value [4] was “not bind CD1d to any measurable extent”.
isoglobotrihexosylceramide [iGb3] was tested, and the “binding of L363 to lipid loaded into CD1d” value [1] was “no ability to bind” and the “binding of L317 to lipid loaded into CD1d” value [3] was “no ability to bind”.
With `CCCCCCCC/C=C\CCCCCCCCCCCCCC(=O)N[C@@H](COC1OC(CO)C(O)C(O)C1O)C(O)/C=C/CCCCCCCCCCCCC` (stereo partly drawn) [βGluCer24:1] the “Affinity Kd (Kdiss/Kass)” value [1] was “N.M” and the “stimulatory activity towards DN32.D3 after digestion with recombinant GBA” value ([2]; GBA 2 h at 37° C., WT splenocytes 10^5 cells/well) was “Stimulatory activity was not changed”.
`CCCCCCCCCCCCCCCCCCCCCCCCCC(=O)N[C@@H](COC1OC(CO)C(O)C(O)C1O)C(O)[C@H](O)CCCCCCCCCCCCCC` (stereo partly drawn) [αGalCer] was tested, and the “Kdiss (L363 binding to CD1d-lipid complex)” value [1] was 0.0083 s⁻¹ and the Kd [1] was 96.7 nM.
For `CCCCCCCCCCCCCC(=O)N[C@H](CO)[C@H](O)c1ccc([N+](=O)[O-])cc1` [NMAPPD, N-[(1R,2R)-2-hydroxy-1-(hydroxymethyl)-2-(4-nitrophenyl)ethyl]-tetradecanamide], the “toxicity over a 24 h assay” value [5] was “too much toxicity”.
With `CCCCCCCC/C=C\CCCCCCCCCCCCCC(=O)N[C@@H](COC1OC(CO)C(O)C(O)C1O)C(O)/C=C/CCCCCCCCCCCCC` (stereo partly drawn) [αGalCer24:1] the “Kdiss (L363 binding to CD1d-lipid complex)” value [1] was 0.05 s⁻¹ and the Kd [1] was 350 nM.
`O=C(CCc1ccc(-c2ccccc2)cc1)N1CCCC1` [NAAA inhibitor, 1-(2-Biphenyl-4-yl)ethyl-carbonyl pyrrolidine] was tested, and the “effect on stimulatory activity of thymocytes towards DN32.D3” value ([2]; thymocytes as APC, NAAA/ASAHLi 20 μM) was “no effect”, the “effect of ceramidase inhibition on stimulatory activity towards NKT cells” value [2, 7] was “very limited but reproducible increase in stimulatory activity” and the “specific activity of the inhibitor of ASAHL” value [6] was 10-200.
In the case of `CCCCCCNC(=O)n1cc(F)c(=O)[nH]c1=O` [carmofur, 1-Hexylcarbamoyl-5-fluorouracil], the “increase of stimulatory activity of thymocytes towards DN32.D3” value ([2]; thymocytes as APC, carmofur 1.0 μM) is reported as 2.5 fold, the “effect of ceramidase inhibition on stimulatory activity towards NKT cells” value [2, 7] is reported as “significant increase in stimulatory activity” and the “toxicity over a 24 h assay” value ([5]; viability and αGalCer presentation to DN32.D3 cells after treatment) is reported as “very limited cell toxicity”.
For `OC[C@H]1NC[C@H](O)[C@@H](O)[C@@H]1O` [1-deoxygluconojirimycin], the “effect on stimulation of NKT cells, FIG. 10 legend” value [2] was “induced or increased stimulation of NKT cells”, the “effect on stimulation of NKT cells in the context of TNFα stimulation” value [2] was “did not increase stimulation of NKT cells” and the “effect on stimulation of NKT cells by DCs” value [2] was “did not result in significant increase in stimulatory activity”.
`CCCCCCCCCCCCCC[C@@H](O)C(O)[C@@H](N)COC1OC(CO)C(O)C(O)C1O` (stereo partly drawn) was tested, and the “Affinity Kd (Kdiss/Kass)” value [1] was “N.M”.
